Experimental data as given in US7662361B2, “Methods and compositions for modulating drug activity through telomere damage” (priority 1999, dated 2010).

Key:
SKOV3 cells = assay: TALA telomere length after paclitaxel treatment; assay type: cell-based, human; conditions: 200 nM paclitaxel
PC3 cells = assay: Cell detachment from the growth surface; assay type: cell-based, human; conditions: 20 nM paclitaxel, end of 96-hr experiment
Description: (§1) Upon drug treatment, the supernatant along with two subsequent Versene rinses, which contained the detached cells, were collected. […] These samples were centrifuged at 1500 rpm for 10 min and the resulting cell pellets were resuspended in 2 ml of culture media. The cell number in the detached and attached fractions were counted using a Coulter counter (Coulter Electronic, Inc., Hialeah, Fla.).

FaDu cells [1] = assay: Cell detachment from the growth surface; assay type: cell-based, human; conditions: 200 nM paclitaxel, end of 48-hr treatment
Description: as §1
Treatment with the above agents was initiated after cells were allowed to attach to the growth surface in culture flasks. On the day of experiments, the culture medium was removed and replaced with drug-containing medium. […] For d4T, two concentrations, 20 μM and 40 μM were used.
Agent effect was measured in three ways, i.e., enumeration of the number of cells that remained attached in culture flask, enumeration of the number of cells that detached from the growth surface, and by measuring changes in apoptosis. […] The drug-induced detachment of cells from the growth surface was determined by counting the attached and detached cells.

FaDu cells [2] = assay: Externalization of phosphatidylserine (Annexin V); assay type: cell-based, human; conditions: 200 nM paclitaxel
Description: Externalization of phosphatidylserine. Apoptotic cells lose membrane phospholipid asymmetry and expose phosphatidylserine on the outer leaflet of plasma membrane. The externalized phosphatidylserine was labeled with Annexin V attached to a fluorescence probe FITC (green fluorescence), using the ApoAlert Annexin V assay (Clontech). As apoptosis progresses, propidium iodide penetrates the cell membrane and stains the cytoplasm (yellow-red stain). Briefly, cells were suspended in binding buffer, incubated with Annexin V-FITC and propidium iodide for 5-15 min in the dark, and examined by fluorescence microscopy. Cells labeled with FITC and/or propidium iodide were scored.

[3] = test system: telomerase activity of FaDu cells; assay: TRAP telomerase activity in drug-treated cells; assay type: cell-based, human; conditions: 200 nM paclitaxel
Description: For the preparation of cell and tissue extracts, cells and tissue were harvested, washed, and stored at −70° C. Cells were then lysed in a SDS-based lysis buffer (10 mM Tris.HCl, pH 7.5, 1 mM MgCl2, 1 mM EGTA, 0.1 mM phenylmethylsulfonyl fluoride, 5 mM β-mercaptoethanol, 0.1% CHAPS, and 10% glycerol), on ice for 10 min. To this mixture, three volumes of CHAPS-based buffer (10 mM Tris-HCl, pH 7.5, 1 mM MgCl2, 1 mM EGTA, 0.1 mM phenylmethylsulfonyl fluoride, 5 mM β-mercaptoethanol, 0.5% CHAPS, and 10% glycerol) were added and kept on ice for 5 min. […] For the extraction of tissues, tissues were homogenized in SDS-based lysis buffer with a Kontes pellet pestle (Fisher, Pittsburgh, Pa.), mixed with three volumes of CHAPS-based buffer, and centrifuged were centrifuged at 8,000 g for 15 min at 4° C. The supernatant was kept at −20° C. The protein concentration of the supernatant was determined using Bicinchoninic Acid Kit (Sigma, St Louis, Mo.). The protein concentration was adjusted to 0.5 μg/μl with CHAPS-based buffer. Samples with equal amounts of protein (1-2 μg) were analyzed by TRAP. […] The TRAP reaction mixture contained 2-4 μl of protein extract, 20 mM Tris.HCl (pH 8.3), 1.5 mM MgCl2, 63 mM KCl, 0.005% Tween-20, 1 mM EGTA, 50 μM dNTPs, 0.1 μg of TS primer, 0.1 mg/ml bovine serum albumin. The mixture was incubated at 30° C. for 30 min, then at 90° C. for 2 min.
This was accomplished by using phenol/chloroform extraction of the cell lysate, as follows. One μg of tRNA and 0.1 ng internal control template were added to the reaction solution after primer extension. The total volume of the mixture was brought to 100 μl with water, mixed with an equal volume of buffer saturated phenol (Life Technology) and then centrifuged at 18,000 g for 3 min, at room temperature. The top aqueous layer (90 μl) was carefully transferred to a new tube and mixed with an equal volume of chloroform:isoamyl alcohol (24:1) solution and centrifuged at 18,000 g for 3 min, at room temperature. The top aqueous layer (80 μl) was again transferred to a new tube and the nucleotides were precipitated with 0.2 volume of 3 M sodium acetate (pH 5.3) and 3 volume of 100% ethanol at −70° C. for at least 2 hr. The mixture was centrifuged at 18,000 g for 15 min at 4° C. […]
The template for the internal standard was amplified by PCR and purified by spin columns (QIAquick PCR purification kit, Qiagen, Valencia, Calif.). The concentration was determined by a spectrophotometer.
PCR was performed on the GeneAmp PCR system 2400 (Perkin Elmer) and initiated by 1 cycle at 94° C. for 3 min, 50° C. for 4 min, and 68° C. for 2 min, then 25 rounds at 94° C. for 30 sec, 50° C. for 30 sec, and 68° C. for 90 sec, followed by 68° C. for 10 min. […] The gel was then dried and the amplification products were detected. […]

FaDu cells [4] = assay: SRB paclitaxel cytotoxicity in hTR antisense transfected cells; assay type: cell-based; conditions: Homo sapiens, +antisense + IPTG cells (IPTG 44 days), paclitaxel 96 hours, read-out: IC50 of paclitaxel, clone #1
Description: In vitro drug activity evaluation. Drug effect was measured in three ways, i.e., by enumerating the number of cells that remained attached in culture flask, by enumerating the number of cells that detached from the growth surface, and changes in levels of apoptosis. The first measurement represents the overall drug effect, i.e., the combination of cytostatic and cytotoxic effects, whereas the latter two measurements reflect the cytotoxic effect. The remaining cell number after drug treatment was measured using the sulforhodamine B (SRB) assay which stains for cellular protein (Skehan P et al. (1990) J Natl Cancer Inst 82:1107-1112).
In brief, cells were seeded onto 96-well plates. To avoid changes in drug concentration caused by excessive evaporation of medium in wells located at the edge of the plate only the inner wells in 96-well plates were used. The outer wells contained only tissue culture media to serve as blanks. […] The amount of SRB was measured by absorbance at 490 nm using an EL 340 microplate biokinetics reader (Bio-Tek Instruments, Inc., Winooski, Vt.). The absorbance is proportional to the number of cells attached to the culture plate. […]
Effect of hTR antisense on the cytotoxic effect of paclitaxel. […] The cytotoxic effect of paclitaxel was quantified using the SRB method which measures the total cellular proteins. […]

FaDu cells [5] = assay: SRB assay of cell number, AZT and paclitaxel; assay type: cell-based, human; conditions: 24 hr
Description: In brief, cells were seeded onto 96-well plates. To avoid changes in drug concentration caused by excessive evaporation of medium in wells located at the edge of the plate only the inner wells in 96-well plates were used. The outer wells contained only tissue culture media to serve as blanks. At the end of drug treatment, the culture medium was removed from the wells by aspiration and the cells were then fixed by incubating with 0.2 ml 10% trichloroacetic acid at 4° C. for 1 hr, followed by five washes with distilled water. The plates were then air-dried after which SRB solution (0.05 ml of 0.4%) was added to stain cells for 10 min at room temperature. […] The amount of SRB was measured by absorbance at 490 nm using an EL 340 microplate biokinetics reader (Bio-Tek Instruments, Inc., Winooski, Vt.). The absorbance is proportional to the number of cells attached to the culture plate. […]
Drug activity evaluation. Agent effect was measured in three ways, i.e., enumeration of the number of cells that remained attached in culture flask, enumeration of the number of cells that detached from the growth surface, and by measuring changes in apoptosis. […] The remaining cell number after agent treatment was measured using the sulforhodamine B (SRB) assay. The drug-induced detachment of cells from the growth surface was determined by counting the attached and detached cells. […]

telomere length = assay: TALA telomere length, paclitaxel and AZT alone or in combination; assay type: cell-based, human
Description: The effect of paclitaxel and AZT, alone or in combination, on telomere length was studied using TALA.

solid tumors = conditions: Gan et al (1996); read-out: concentration that caused 50% cytotoxicity in solid tumors; cited from earlier work
[6] = test system: human pharynx FaDu xenografts; assay: Antitumor effect in mice bearing FaDu xenografts
Description: The activity of paclitaxel, with or without AZT, was evaluated in immunodeficient mice (male Balb/c nu/nu mice, 6-8 weeks old) bearing the human pharynx FaDu xenografts. […] The saline control group received injections of 200 μl/day of physiological saline of five consecutive days. The paclitaxel group received injections of 10 mg/kg/day paclitaxel dissolved in Cremophor and ethanol (i.e., Taxol) in a volume of 200 μl for five consecutive days. The AZT group received a seven-day infusion of AZT at a rate of 200 ng/hr by a subcutaneously implanted Alzet minipump. […] Animal weights and tumor sizes were measured on days 1, 3, 6, 8, and 10 after initiation of the paclitaxel treatment.
The antitumor effect of the drug treatments was measured in three ways. The first was the reduction in tumor size. Tumor sizes were determined by first preparing a mold of the extruding tumor using Jeltrate, a rapidly setting molding material, and then preparing and weighing the countermold. Second, the apoptotic effect was measured. […] The tumor sections were evaluated morphologically for tumor cell density, and density of apoptotic cells. […] Third, the ability of drug treatment to prolong the survival time was measured. For this study, the animals were monitored for 100 days, or until moribundity, defined by a tumor length exceeding 1.0 cm, was reached.

Compound: CC(=O)O[C@H]1C(=O)[C@@]2(C)[C@H]([C@H](OC(=O)c3ccccc3)[C@]3(O)C[C@H](OC(=O)[C@H](O)[C@@H](NC(=O)c4ccccc4)c4ccccc4)C(C)=C1C3(C)C)[C@]1(OC(C)=O)CO[C@@H]1C[C@@H]2O [paclitaxel]
- shortening of telomeric length (SKOV3 cells; 24 hr, compared to untreated controls): 13%
- telomere shortening on extending treatment (SKOV3 cells; 36 hr): did not produce a greater telomere shortening
- detached cell fraction (PC3 cells): 68%
- detached cell fraction (FaDu cells [1]): about 40%
- fraction labeled for externalized phosphatidylserine (FaDu cells [2]; attached cells): 6-8%
- time at which labeled fraction became significantly higher than untreated controls (FaDu cells [2]; detached cells): 12 h
- fraction labeled for externalized phosphatidylserine (FaDu cells [2]; detached cells, 24 hr): 60%
- peak telomerase activity ([3]; 3 hr): ~180 % of control value
- telomerase activity ([3]; 24 hr): returning to the baseline level
- telomerase activity ([3]; 48 hr): 50 % of the control values
- IC50 (FaDu cells [4]): 1.3 nM
- Emax (FaDu cells [5]; Homo sapiens, FaDu, paclitaxel alone, up to 10 μM, read-out: maximum effect (reduction of cell number)): 35%
- cell number (FaDu cells [5]; paclitaxel alone 100 nM, fixed concentration method): about 65 % of the control value
- shortening of the average telomeric length (telomere length; 200 nM paclitaxel 24 hr, combination: 10 μM AZT 24 hr pretreatment then AZT plus paclitaxel 24 hr): 13%
- telomere shortening on extending treatment (telomere length; paclitaxel 36 hr): did not produce a greater telomere shortening
- IC50 (solid tumors): 1000 nM
- median time to reach moribundity ([6]; Kaplan Meier analysis, monitored 100 days): 42 days
- tumor-free survivors ([6]; of 12 animals): did not show tumor-free survivors
